Test results as given in the NIST ThermoML archive (doi:10.1021/je034102r).
± gives the expanded uncertainty stated by the source.

Assay: molar heat capacity at constant pressure
Conditions: 101.33 kPa, Liquid, heat bridge-scanning calorimeter

CCCCn1cc[n+](C)c1.F[P-](F)(F)(F)(F)F [1-butyl-3-methylimidazolium hexafluorophosphate]
Conditions	molar heat capacity at constant pressure [J/K/mol]
300.05 K	409.22 ± 8.2
300.17 K	409.79 ± 8.2
300.3 K	410.08 ± 8.2
300.43 K	410.08 ± 8.2
300.55 K	410.36 ± 8.2
300.81 K	410.36 ± 8.2
300.94 K	410.36 ± 8.2
301.07 K	410.64 ± 8.2
301.19 K	410.93 ± 8.2
301.32 K	410.93 ± 8.2
301.45 K	411.21 ± 8.2
301.57 K	410.93 ± 8.2
301.7 K	411.5 ± 8.2
301.83 K	411.5 ± 8.2
301.95 K	411.5 ± 8.2
302.08 K	411.78 ± 8.2
302.35 K	412.06 ± 8.2
302.48 K	412.06 ± 8.2
302.61 K	412.06 ± 8.2
302.73 K	412.35 ± 8.2
302.86 K	412.35 ± 8.2
302.99 K	412.35 ± 8.2
303.12 K	412.35 ± 8.2
303.24 K	412.92 ± 8.2
303.37 K	412.92 ± 8.2
303.63 K	413.2 ± 8.2
303.75 K	413.2 ± 8.2
303.89 K	413.2 ± 8.2
304.02 K	413.2 ± 8.2
304.15 K	413.2 ± 8.2
304.27 K	413.2 ± 8.2
304.4 K	413.49 ± 8.2
304.53 K	413.49 ± 8.2
304.66 K	413.77 ± 8.2
304.78 K	414.05 ± 8.2
304.91 K	414.05 ± 8.2
305.19 K	414.34 ± 8.2
305.31 K	414.34 ± 8.2
305.44 K	414.34 ± 8.2
305.57 K	414.62 ± 8.2
305.7 K	414.91 ± 8.2
305.82 K	414.62 ± 8.2
305.95 K	414.91 ± 8.2
306.08 K	415.19 ± 8.2
306.2 K	415.19 ± 8.2
306.46 K	415.19 ± 8.2
306.59 K	415.19 ± 8.2
306.72 K	415.47 ± 8.2
306.84 K	415.47 ± 8.2
306.97 K	415.47 ± 8.2
307.1 K	415.76 ± 8.2
307.22 K	415.76 ± 8.2
307.35 K	416.33 ± 8.2
307.48 K	415.76 ± 8.2
307.61 K	416.04 ± 8.2
307.73 K	416.04 ± 8.2
308.01 K	416.04 ± 8.2
308.13 K	416.61 ± 8.2
308.26 K	416.33 ± 8.2
308.39 K	416.61 ± 8.2
308.51 K	416.61 ± 8.2
308.64 K	416.9 ± 8.2
308.77 K	416.61 ± 8.2
308.89 K	416.61 ± 8.2
309.02 K	416.9 ± 8.2
309.28 K	416.9 ± 8.2
309.41 K	417.18 ± 8.2
309.53 K	417.46 ± 8.2
309.66 K	417.46 ± 8.2
309.8 K	417.46 ± 8.2
309.93 K	417.46 ± 8.2
310.05 K	417.46 ± 8.2
310.18 K	417.46 ± 8.2
310.31 K	417.75 ± 8.2
310.44 K	417.75 ± 8.2
310.56 K	418.03 ± 8.2
310.84 K	418.32 ± 8.2
310.97 K	418.32 ± 8.2
311.09 K	418.32 ± 8.2
311.22 K	418.32 ± 8.2
311.35 K	418.6 ± 8.2
311.47 K	418.32 ± 8.2
311.6 K	418.6 ± 8.2
311.73 K	418.6 ± 8.2
311.86 K	418.32 ± 8.2
312.11 K	418.6 ± 8.2
312.24 K	418.6 ± 8.2
312.37 K	418.88 ± 8.2
312.49 K	418.88 ± 8.2
312.62 K	419.17 ± 8.5
312.75 K	419.17 ± 8.5
312.87 K	419.45 ± 8.5
313 K	419.45 ± 8.5
313.13 K	419.45 ± 8.5
313.25 K	419.45 ± 8.5
313.38 K	419.74 ± 8.5
313.65 K	420.02 ± 8.5
313.78 K	420.02 ± 8.5
313.91 K	420.02 ± 8.5
314.04 K	420.02 ± 8.5
314.16 K	420.02 ± 8.5
314.29 K	420.02 ± 8.5
314.42 K	420.31 ± 8.5
314.54 K	420.59 ± 8.5
314.67 K	420.59 ± 8.5
314.93 K	420.59 ± 8.5
315.05 K	420.59 ± 8.5
315.18 K	420.87 ± 8.5
315.31 K	420.87 ± 8.5
315.43 K	420.87 ± 8.5
315.56 K	420.87 ± 8.5
315.7 K	420.87 ± 8.5
315.82 K	420.87 ± 8.5
315.95 K	421.16 ± 8.5
316.08 K	420.87 ± 8.5
316.2 K	421.16 ± 8.5
316.48 K	421.16 ± 8.5
316.6 K	421.44 ± 8.5
316.73 K	421.73 ± 8.5
316.86 K	421.73 ± 8.5
316.98 K	421.73 ± 8.5
317.11 K	421.73 ± 8.5
317.24 K	421.73 ± 8.5
317.36 K	421.73 ± 8.5
317.49 K	421.44 ± 8.5
317.75 K	422.01 ± 8.5
317.88 K	422.01 ± 8.5
318 K	422.29 ± 8.5
318.13 K	422.29 ± 8.5
318.26 K	422.58 ± 8.5
318.38 K	422.58 ± 8.5
318.51 K	422.58 ± 8.5
318.64 K	422.58 ± 8.5
318.76 K	422.86 ± 8.5
318.89 K	422.58 ± 8.5
319.02 K	423.15 ± 8.5
319.29 K	422.86 ± 8.5
319.42 K	422.86 ± 8.5
319.54 K	422.86 ± 8.5
319.67 K	422.86 ± 8.5
319.8 K	422.86 ± 8.5
319.92 K	422.86 ± 8.5
320.05 K	423.15 ± 8.5
320.18 K	423.15 ± 8.5
320.3 K	423.15 ± 8.5
320.56 K	423.43 ± 8.5
320.69 K	423.43 ± 8.5
320.81 K	423.72 ± 8.5
320.94 K	423.72 ± 8.5
321.06 K	423.72 ± 8.5
321.19 K	424 ± 8.5
321.32 K	424 ± 8.5
321.44 K	424 ± 8.5
321.57 K	424 ± 8.5
321.71 K	424 ± 8.5
321.83 K	424.28 ± 8.5
322.11 K	424.28 ± 8.5
322.23 K	424.28 ± 8.5
322.36 K	424 ± 8.5
322.49 K	424 ± 8.5
322.61 K	424 ± 8.5
322.74 K	424.28 ± 8.5
322.87 K	424.28 ± 8.5
322.99 K	424.57 ± 8.5
323.12 K	424.57 ± 8.5
323.38 K	424.57 ± 8.5
323.5 K	424.57 ± 8.5
323.63 K	424.85 ± 8.5
323.76 K	424.85 ± 8.5
323.88 K	424.85 ± 8.5
324.01 K	425.14 ± 8.5
324.14 K	425.14 ± 8.5
324.26 K	425.14 ± 8.5
324.39 K	425.42 ± 8.5
324.51 K	425.42 ± 8.5
324.64 K	425.42 ± 8.5
324.91 K	425.71 ± 8.5
325.04 K	425.71 ± 8.5
325.17 K	425.71 ± 8.5
325.29 K	425.71 ± 8.5
325.42 K	425.71 ± 8.5
325.54 K	425.99 ± 8.5
325.67 K	425.71 ± 8.5
325.8 K	425.99 ± 8.5
325.92 K	426.27 ± 8.5
326.18 K	426.27 ± 8.5
326.31 K	426.27 ± 8.5
326.43 K	426.27 ± 8.5
326.56 K	426.56 ± 8.5
326.68 K	426.56 ± 8.5
326.81 K	426.27 ± 8.5
